Positions count from the first letter of the chain named. Names may count otherwise. Like-named read-outs stand apart in the source and are kept apart here.
Assays:
Assay type in all cases: biochemical
[1] = tested on: QueF; experiment: QueF nitrile oxido-reductase assay, continuous UV monitoring of NADPH oxidation (preQ0 to preQ1)
Method: PreQ0 oxido-reductase activity was determined using a number of redox cofactors, and activity was observed only in the presence of NADPH. […] […] Assays were run from 30 seconds to 2 hours.
To confirm that preQ1 was the reduced product as predicted, reaction assays were analyzed by reverse-phase HPLC (Bondclone 10 C-18, 300×3.9 mm) with a mobile phase of 20 mM ammonium actetate (pH 6.0) and methanol. With a flow-rate of 1 mL/min a series of linear gradients were developed from 20 mM ammonium acetate (pH 6.0) (buffer U) to 75% methanol in buffer U (buffer V) in the following manner (beginning time and ending time and linear increase to % V): 0-20.0 min, 0% V; 20.0-30.0 min, 8% V; 30.0-40.0 min, 20% V; 40.0-42.0 min, 100% V; 42.0-50.0 min, 100% V; and 50.0.0-52.0 min, 0% V. PreQ0 and preQ1 were detected with a diode array detector.

[2] = GTP cyclohydrolase activity assays (radiochemical [14C]formic acid release, fluorescence, HPLC); conditions: three assays, large screen of conditions (cyclohydrolase I, II, III)
From the text: GTP cyclohydrolase activity was investigated using three different assays (radiochemical based release of [^14C]formic acid, fluorescence, or HPLC analysis of reactions) and a large screen of assay conditions (including those for cyclohydrolase I, II, and III activity).

[3] = standard nitrile oxido-reductase assay of B. subtilis QueF mutants; conditions: Glu98 substitution in SEQ ID NO: 2
Method: Assays were typically carried out at 30° C. in a final volume of 80 μL in a solution of 50 mM HEPES (pH 7.5), 50 mM KCl, 1 mM DTT, 2-150 μM NADPH, 0.2-150 μM preQ0, and 10-1000 nM QueF. Assays were run from 30 seconds to 2 hours.

N#Cc1c[nH]c2nc(N)[nH]c(=O)c12 [preQ0, 7-cyano-7-deazaguanine]
Km ([1]; read-out: KM for preQ0): < 1 µM | kcat ([1]; variable NADPH and constant, saturating preQ0): 0.01 s⁻¹

reduced form of nicotinamide adenine dinucleotide phosphate [NADPH]
Km ([1]; variable NADPH and constant, saturating preQ0, read-out: KM for NADPH): 36 µM

NCC1C=Nc2nc(N)[nH]c(=O)c21 (stereo not shown) [preQ1, 7-aminomethyl-7-deazaguanine]
preQ0 generated when the reaction was run in reverse ([1]; reverse reaction with preQ1 and NADP+): < 1%

B1: YqcD: E. coli QueF Class II protein, SEQ ID NO: 4 (protein)
chain: MSSYANHQALAGLTLGKSTDYRDTYDASLLQGVPRSLNRDPLGLKADNLPFHGTDIWTLYELSWLNAKGLPQVAVGHVELDYTSVNLIESKSFKLYLNSFNQTRFNNWDEVRQTLERDLSTCAQGKISVALYRLDELEGQPIGHFNGTCIDDQDITIDNYEFTTDYLENATCGEKVVEETLVSHLLKSNCLITHQPDWGSLQIQYRGRQIDREKLLRYLVSFRHHNEFHEQCVERIFNDLLRFCQPEKLSVYARYTRRGGLDINPWRSNSDFVPSTTRLVRQ
GTP cyclohydrolase activity [2]: no GTP cyclohydrolase activity was detected

B2: E98M: QueF with substitution of Glu98 in SEQ ID NO: 2 to Met (protein)
chain: MTTRKESELEGVTLLGNQGTNYLFEYAPDVLESFPNKHVNRDYFVKFNCPEFTSLCPKTGQPDFATIYISYIPDEKMVESKSLKLYLFSFRNHGDFHMDCMNIIMNDLIELMDPRYIEVWGKFTPRGGISIDPYTNYGKPGTKYEKMAEYRMMNHDLYPETIDNR
ability to reduce PreQ0 [3]: significantly decreased

B3: YkvM: B. subtilis QueF Class I protein, SEQ ID NO: 2 (protein)
chain: B2 chain with M98E
GTP cyclohydrolase activity [2]: no GTP cyclohydrolase activity was detected

Reference: US7364882B1, “Enzymatic reduction of a nitrile containing compound to the corresponding amine” (State of Oregon Acting by and Through the State Board of …, priority 2004, dated 2008)
